Results as given in patent US20210002265A1, “PYRAZOLE DERIVATIVES AS INHIBITORS OF THE WNT SIGNALLING PATHWAY” (Université de Lausanne, priority 2018, published 2021).

Assays:
TNBC cell lines = settings: different TNBC cell lines, FIG. 8
Description: TNBC cell lines were seeded at previously determined concentrations in 6-well plates and incubated for 24 h. The cells were then treated with the compounds or DMSO only and the colony formation followed daily by visual inspection. Once the colonies were big enough (70-100 cells), the cells were fixed with a solution of 4% PFA in PBS pH 7.4. The colonies were then stained using a solution of 1% Crystal violet and images taken of the individual wells to count the number of colonies. The colony counting and analysis was done using ImageJ.

[1] = In vivo pharmacokinetic profiling and tissue analysis; settings: tumour bearing mice
Description: An in vivo experiment was performed to get a rough ADME profile and a first impression of the tolerability of the compounds and to determine any acute toxicity. […] Blood samples were taken at regular intervals for studying the kinetics.

[2] = system: total β-catenin in L-cells; settings: 50 μM, FIG. 4
Description: (§1) Cells were seeded to 70-80% confluency in 12-well plates and incubated overnight. The medium was then changed for medium containing compound or DMSO and the cells pre-incubated for 1 h. […] After washing the cells with ice cold PBS, the cells were lysed by addition of 70 μl RIPA buffer (50 mM Tris pH 7.4, 1% Triton X-100, 0.1% SDS, 150 mM NaCl, 1 mM EDTA, 1 mM DTT, protease inhibitors (Roche)) containing phosphatase inhibitors if needed (4 mM NaF, 4 mM Imidazole, 2.3 mM Na2MoO4, 4 mM Na3VO4, 8 mM M C4H4Na2O6*2H2O, 2 mM Na4P2O7, 2 mM β-Glycerophosphate) and shaking 10 min on ice. The cell lysate was collected and centrifuged for 15 min at 16000 g at 4° C. to remove cell debris. The samples were equilibrated using the Bradford method and further separated and analyzed by SDS-PAGE and Western blot respectively.

[3] = system: active β-catenin in HCC 1395 cells; settings: 50 μM, FIG. 4
Description: as §1

[4] = system: cytoplasmic β-catenin in BT-20 cells; settings: 50 μM, Wnt3a or LiCl, FIG. 3
Description: as §1

DVL2 in HCC 1395 cells = settings: 50 μM, FIG. 5
Description: as §1
(§2) The effects of compound 1 on the upper-level phosphoprotein DVL was examined. The phosphoprotein DVL is phosphorylated on over 40 sites upon Wnt-pathway activation, which can be detected as a shift when analysed by electrophoresis.

DVL2 and DVL3 in L-cells = settings: 50 μM, FIG. 5
Description: as §1, §2

[5] = microsomal assay
HCC 1806 = settings: MTT, HCC 1806, 72 h
Description: (§3) TNBC cell lines and were seeded at previously determined concentrations in 96-well plates and incubated for 24 h. The next day, the medium was replaced with medium containing either compound or the respective amount of DMSO for the controls. The proliferation was measured after 72 h, by addition of a solution of 1 mg/ml thiazolyl blue (Roth) in PBS, further incubation for 2 h-4 h at 37° C., and lysis of the cells by addition of 50 μl DMSO. The absorbance was read at 570 nm using the Victor3 Multilabel Counter (PerkinElmer).

HCC 1395 = settings: MTT, HCC 1395, 72 h
Description: as §3

BT-20 = settings: MTT, BT-20, 72 h
Description: as §3

MDA-MB 468 = settings: MTT, MDA-MB 468, 72 h
Description: as §3

MDA-MB 231 = settings: MTT, MDA-MB 231, 72 h
Description: as §3

[6] = system: Wnt pathway downstream part activated by LiCl; settings: LiCl activation, FIG. 2
Description: (§4) Wnt-3a whole pathway activation (circle); LiCl activation of downstream elements only (square); Renilla, control for cell well-being (triangle).
(§5) For the screens, BT-20 cells, stably transfected with the TOPFlash reporter plasmid were seeded at 15K cells per well in white tissue-culture-treated 96-well plates (Greiner) and incubated overnight. If needed, the cells were additionally transfected with the pRL-CMV plasmid using the X-tremeGENE HP DNA transfection reagent (Roche) according to the manufacturer's protocol and again incubated overnight. […] The medium was then removed and 12 μl 10% sucrose solution was added to the cells to prevent drying. […] Data was analyzed using the Prism 6 Software (GraphPad).

[7] = system: Renilla luciferase expressed under control of CMV promoter; settings: FIG. 2
Description: as §4, §5

[8] = system: Wnt pathway (Wnt3a-stimulated) in BT-20 cells; assay: TOPFlash reporter assay, Wnt3a activation; type: cell-based; settings: for Efficacy (%): average efficacy, BT-20 TOPFlash; for Efficacy (%) / IC50: Wnt3a 250 ng/ml; for IC50: average potency, BT-20 cells stably transfected with TOPFlash reporter
Description: A commercial (ChemDiv Inc., San Diego, Calif., US) small molecule library (high-diversity GPCR-targeted compound library containing 1000 compounds selected by ChemDiv focusing on maximizing chemical diversity from the 40′000 GPCR-targeted compound library [see http://www.chemdiv.com, particularly http://www.chemdiv.com/gpcr-target-platform-library-2/]) containing 1000 compounds was screened for Wnt pathway inhibitory effect using the TOPflash assay. […] In a first round of screening, 34 randomly chosen compounds resembling compound 1, but presenting some intravariance were tested for their ability to inhibit the Wnt pathway, using the TOPFLash reporter assay.
as §5

SMILES | mean concentration achieved in the breast [1] | Tissue concentration, Breast [1] | Tissue concentration, Faeces [1] | Tissue concentration, Intestine [1] | Tissue concentration, Liver [1] | Tissue concentration, Lung [1] | Tissue concentration, Plasma [1] | Tissue concentration, Tumor [1] | Tissue concentration, Urine [1] | CYP stability (% compound after 60 min) [5] | CYP UGT stability (% compound after 60 min) [5] | Efficacy (%) [8] | IC50 [8] | other results
Cc1ccc2[nH]cc(CCNC(=O)CCc3cn(-c4ccccc4)nc3-c3ccc4c(c3)OCO4)c2c1 [Compound 1] | around 20 μM | 92.1 µM | 0.1 µM | 44.0 µM | 136.9 µM | 6.2 µM | 3.9 µM | 154.3 µM | 6.6 µM | 33% | 49% | 86.3% | 11 µM | colony formation (TNBC cell lines): inhibition of colony formation; total β-catenin levels [2]: clear decrease; active β-catenin levels [3]: decrease in the active-β catenin levels; accumulation of cytoplasmic β-catenin [4]: essentially recapitulating the results obtained using TopFlash; DVL2 phosphorylation shift upon Wnt3a stimulation (DVL2 in HCC 1395 cells): clearly inhibited the shift; DVL2 and DVL3 phosphorylation shift upon Wnt3a stimulation (DVL2 and DVL3 in L-cells): clearly inhibited the shift; Efficiency (%) (HCC 1806): 79%; IC50 (HCC 1806): 18 µM; Efficiency (%) (HCC 1395): 90%; IC50 (HCC 1395): 8 µM; Efficiency (%) (BT-20): 90%; IC50 (BT-20): 15 µM; Efficiency (%) (MDA-MB 468): 93%; IC50 (MDA-MB 468): 12 µM; Efficiency (%) (MDA-MB 231): 63%; IC50 (MDA-MB 231): 6 µM; inhibition when downstream part of the pathway is activated by LiCl [6]: do not inhibit; levels of Renilla luciferase (cell well-being control) [7]: not changing the levels of Renilla luciferase; suppression of Wnt3a-stimulated pathway activation ([8]; Wnt-3a whole pathway activation, FIG. 2): efficient in specific suppression of the Wnt3a-stimulated pathway activation
O=C(CCc1cn(-c2ccccc2)nc1-c1ccc2c(c1)OCO2)NCCc1ccco1 [Compound 7] | – | – | – | – | – | – | – | – | – | – | – | 85.0% | 15.2 µM | –
O=C(CCc1cn(-c2ccccc2)nc1-c1ccc2c(c1)OCO2)NCCc1ccccc1 [Compound 11] | – | – | – | – | – | – | – | – | – | – | – | 88.4% | 5.2 µM | –
O=C(CCc1cn(-c2ccccc2)nc1-c1ccc2c(c1)OCO2)NCCc1cccs1 [Compound 13] | – | – | – | – | – | – | – | – | – | – | – | 77.0% | 6.5 µM | –
Cc1ccccc1Cn1cc(-c2ccncc2)cc1C(=O)N1CCN(c2ccccc2)CC1 [Compound 24] | around 8 μM | 8.6 µM | 0.1 µM | 0.3 µM | 0.3 µM | 0.3 µM | 0.3 µM | 0.3 µM | 0.1 µM | 67% | 76% | 94.8% | 18.3 µM | –
O=C(Nc1ccccc1)N1CCC(n2nc(-c3ccccc3)cc2-c2ccccc2)CC1 [Compound 26] | – | – | – | – | – | – | – | – | – | – | – | 72.7% | 16.5 µM | –
